Reference: the supplement of paper PMC11061612

Key:
[1] = test system: T84 (Colorectal Carcinoma); assay: combination Emax (second highest fraction inhibited in the dose matrix, 72 h); higher = more inhibition; extreme values may be limits of the assay
Outline: (§1)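 Bliss excess equals the observed combination effect minus the expected value EA + EB − EA·EB, where EA and EB are the effects of each agent alone. Combination Emax is the second-highest inhibition within the matrix. Inhibition was scaled from CellTiter-Glo 2.0 luminescence, with 0 set by vehicle wells and 1 by blank wells, after 72 hours of two-drug dosing of cells plated in 1536-well plates.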

[2] = test system: CPC-N (Small Cell Lung Carcinoma); assay: as above
Outline: as §1

[3] = test system: SNU-C2B (Colorectal Carcinoma); assay: as above
Outline: as §1

[4] = test system: Raji (Burkitt's Lymphoma); assay: as above
Outline: as §1

[5] = test system: NCI-H1341 (Small Cell Lung Carcinoma); assay: as above
Outline: as §1

[6] = test system: OAW-28 (Ovarian Carcinoma); assay: as above
Outline: as §1

[7] = test system: SAT (Head and Neck Carcinoma); assay: as above
Outline: as §1

[8] = test system: C-33-A (Cervical Carcinoma); assay: as above
Outline: as §1

[9] = test system: OVCAR-3 (Ovarian Carcinoma); assay: as above
Outline: as §1

[10] = test system: LS-1034 (Colorectal Carcinoma); assay: as above
Outline: as §1

[11] = test system: NCI-H1876 (Small Cell Lung Carcinoma); assay: as above
Outline: as §1

[12] = test system: HT-1080 (Other Solid Carcinomas); assay: as above
Outline: as §1

[13] = test system: CL-11 (Colorectal Carcinoma); assay: as above
Outline: as §1

[14] = test system: SK-N-SH (Neuroblastoma); assay: as above
Outline: as §1

[15] = test system: DBTRG-05MG (Glioblastoma); assay: as above
Outline: as §1

[16] = test system: MM1S (Plasma Cell Myeloma); assay: as above
Outline: as §1

[17] = test system: SiHa (Cervical Carcinoma); assay: as above
Outline: as §1

[18] = test system: NCI-H1341 (Small Cell Lung Carcinoma); assay: Bliss excess, mean over the matrix (fraction); higher = more synergy
Outline: as §1

[19] = test system: LCLC-103H (Non-Small Cell Lung Carcinoma); assay: as above
Outline: as §1

[20] = test system: SNU-423 (Hepatocellular Carcinoma); assay: as above
Outline: as §1

SMILES | combination Emax [1] | combination Emax [2] | combination Emax [3] | combination Emax [4] | combination Emax [5] | combination Emax [6] | combination Emax [7] | combination Emax [8] | combination Emax [9] | combination Emax [10] | combination Emax [11] | combination Emax [12] | combination Emax [13] | combination Emax [14] | combination Emax [15] | combination Emax [16] | combination Emax [17] | Bliss excess [18] | Bliss excess [19] | Bliss excess [20]
COc1cccc(OCCCN)c1-c1cc(Nc2cnc(C#N)cn2)n[nH]1 [Prexasertib] + C[C@@H]1COCCN1C2=NC(=NC(=C2)C3(CC3)[S@](=N)(=O)C)C4=C5C=CNC5=NC=C4 [AZD6738] (first compound max 1 µM, 7x7, partner max 10 µM) | 0.815 | 1 | 0.649 | 0.956 | 0.912 | 0.546 | 0.552 | 0.913 | 0.773 | 0.71 | 0.981 | 0.534 | 0.764 | 0.901 | 0.281 | 0.877 | 0.445 | -0.0683 | 0.0242 | 0
C[C@@H](c1ccc2nccn2c1)n1nnc2ncc(-c3cnn(C)c3)nc21 [Savolitinib] + Cc1c2c(nn1C)CSCc1cc(n(C)n1)CSc1cc(c3ccccc3c1)OCCCc1c(C(=O)O)n(C)c3c-2c(Cl)ccc13 [AZD5991] (first compound max 1 µM, 7x7, partner max 1 µM) | 0.103 | 0.263 | 0.187 | 0.751 | 0.488 | 0.142 | 0.427 | 0.114 | 0.195 | 0.128 | 0.32 | 0.117 | 0.132 | 0.267 | 0.0768 | 0.225 | 0.167 | 0.0274 | -0.0417 | -0.0364
Cc1nc(Nc2ncc(C(=O)Nc3c(C)cccc3Cl)s2)cc(N2CCN(CCO)CC2)n1 [Dasatinib] + CC(=O)Nc1cccc(-n2c(=O)n(C3CC3)c(=O)c3c(Nc4ccc(I)cc4F)n(C)c(=O)c(C)c32)c1 [Trametinib] (first compound max 2 µM, 7x7, partner max 1 µM) | 0.816 | 0.0279 | 0.66 | 0.134 | 0.425 | 0.524 | 0.826 | 0.642 | 0.494 | 0.861 | 0.165 | 0.61 | 0.961 | 0.476 | 0.556 | 0.227 | 0.329 | 0.105 | 0.0201 | -0.047
CC(=O)Nc1cccc(-n2c(=O)n(C3CC3)c(=O)c3c(Nc4ccc(I)cc4F)n(C)c(=O)c(C)c32)c1 [Trametinib] + Cc1nc(-c2cn3c(n2)-c2ccc(-c4cnn(C(C)(C)C(N)=O)c4)cc2OCC3)n(C(C)C)n1 [Taselisib] (first compound max 1 µM, 7x7, partner max 10 µM) | 0.96 | 0.362 | 0.676 | 0.144 | 0.927 | 0.589 | 0.941 | 0.669 | 0.652 | 0.787 | 0.796 | 0.628 | 0.989 | 0.827 | 0.69 | 1 | 0.302 | 0.183 | 0.0657 | 0.0727
Cc1cc2ncnn2cc1Nc1ncc2c(n1)n(C1CCOCC1)c(=O)n2C [AZD7648] + C[C@@H]1COCCN1C2=NC(=NC(=C2)C3(CC3)[S@](=N)(=O)C)C4=C5C=CNC5=NC=C4 [AZD6738] (first compound max 10 µM, 7x7, partner max 10 µM) | 0.706 | 0.911 | 0.63 | 0.779 | 0.801 | 0.42 | 0.494 | 0.913 | 0.233 | 0.696 | 0.809 | 0.426 | 0.767 | 0.859 | 0.306 | 0.592 | 0.32 | -0.0087 | 0.042 | 0.0426
CN(CCO)CC[C@H](CSc1ccccc1)Nc1ccc(S(=O)(=O)NC(=O)c2ccc(N3CCC([C@@H](O)c4ccccc4-c4ccc(Cl)cc4)CC3)cc2)cc1S(=O)(=O)C(F)(F)F [AZD4320] + C[C@@H](Nc1cc(F)cc(F)c1)c1cc(C(=O)N(C)C)cc2c(=O)cc(N3CCOCC3)oc12 [AZD8186] (first compound max 1 µM, 7x7, partner max 3 µM) | 0.249 | 0.95 | 0.374 | 0.354 | 0.99 | 0.991 | 0.446 | 0.515 | 0.512 | 0.334 | 1 | 0.704 | 0.378 | 0.986 | 0.935 | 0.988 | 0.33 | 0.0517 | -0.0139 | -0.0628
COc1cccc(OCCCN)c1-c1cc(Nc2cnc(C#N)cn2)n[nH]1 [Prexasertib] + C=CCn1c(=O)c2cnc(Nc3ccc(N4CCN(C)CC4)cc3)nc2n1-c1cccc(C(C)(C)O)n1 [AZD1775] (first compound max 1 µM, partner max 1 µM) | 0.861 | 1 | 0.676 | 0.977 | 0.982 | 0.569 | 0.666 | 0.985 | 0.885 | 0.835 | 1 | 0.576 | 0.834 | 0.939 | 0.331 | 0.963 | 0.487 | 0.13 | 0.0284 | 0.128
